# Reference: patent publication US20070197599A1, “HYDROXYLAMINES AND DERIVATIVES AS ANTI-ANGIOGENIC AGENTS” (priority 2006, published 2007)
# Read-outs that look alike come from different tables or passages of the source.
# Legend:
# [1] = In vitro stability of Compound 1 in rat plasma; format: in vitro ADME; conditions: for Concentration of Compound 1 in plasma: 1000 ng/mL added; for half-life at 1000 ng/mL: rat, pooled rat plasma
# Method: (§1) The active metabolite of Compound 1 (Cyclopropanecarboxylic acid 1-hydroxy-2,2,6,6-tetramethyl-piperidin-4-yl ester) is TPH. The objective of this analysis was to determine the in vitro half-life of Compound 1 in rat, rabbit, dog, and human plasma under standardized incubation conditions.
# (§2) Compound 1 was incubated with pooled rat, rabbit, dog, and human plasma for various times under standardized incubation conditions. Pre-labeled tubes containing pooled plasma from rats, rabbits, dogs, and humans were pre-incubated in a shaking 37° C. water bath. A Compound 1 solution was added to the tubes at a final concentration of 1000 ng/mL. Time zero samples (n=5) were immediately removed and transferred into tubes containing a stabilizer solution (DTPA, acetylcysteine and ascorbic acid), the LC/MS/MS assay internal standard and methanol. […] The tubes were vortexed, placed on ice, followed by centrifugation. One hundred-μL aliquots of the supernatant were transferred into HPLC sample vials. Additional tubes (n=5 at each time point) were incubated for 5, 10, 20, 30, 60, 120, and 240 minutes at 37° C. and thereafter processed. The amount of Compound 1 and TPH in each incubated sample was quantified using validated LC/MS/MS assays.
# [2] = In vitro stability of Compound 1 in rabbit plasma; format: in vitro ADME; conditions: for Concentration of Compound 1 in plasma: 1000 ng/mL added; for half-life at 1000 ng/mL: rabbit, pooled rabbit plasma
# Method: as §1, §2
# [3] = In vitro stability of Compound 1 in dog plasma; format: in vitro ADME; conditions: for Concentration of Compound 1 in plasma: 1000 ng/mL added; for half-life at 1000 ng/mL: dog, pooled dog plasma
# Method: as §1, §2
# [4] = In vitro stability of Compound 1 in human plasma; format: in vitro ADME; conditions: for Concentration of Compound 1 in plasma: 1000 ng/mL added; for half-life at 1000 ng/mL: human, pooled human plasma
# Method: as §1, §2
# [5] = Single-dose 10-minute intravenous infusion toxicokinetics in Sprague-Dawley rats; format: in vivo; conditions: for Cmax: in vivo, read-out: Cmax of Compound 1; for Cmax / Tmax: 10-minute iv infusion; for concentration at 0.167 hr: 0.167 hr from start of infusion; for Tmax: read-out: Tmax of Compound 1
# Method: Blood for toxicokinetic evaluations was collected at pre-determined time points during and after the infusion.
# All pharmacokinetic analyses were performed using Kinetica®, version 4.2 (Innaphase, Philadelphia, Pa.).
# Cmax is the observed maximum plasma concentration
# Tmax is the time Cmax is reached
# T1/2 is the elimination half-life
# The plasma concentrations were rounded to the nearest tenth of a ng/mL before the calculations. […] Nominal time points were used for all calculations.
# [6] = average, read-out: in vitro half-life
smiles,measurement,setting,value
"CC1(C)CC(OC(=O)C2CC2)CC(C)(C)N1O.Cl [Compound 1, 1-hydroxy-4-cyclopropanecarbonyloxy-2,2,6,6-tetramethylpiperidine hydrochloride]",Concentration of Compound 1 in plasma,"[1]; 37° C., incubation 0 min",806.50 ± 86.77 ng/mL
same,Concentration of Compound 1 in plasma,"[1]; 37° C., incubation 5 min",770.32 ± 20.66 ng/mL
same,Concentration of Compound 1 in plasma,"[1]; 37° C., incubation 10 min",745.77 ± 15.50 ng/mL
same,Concentration of Compound 1 in plasma,"[1]; 37° C., incubation 20 min",682.88 ± 16.94 ng/mL
same,Concentration of Compound 1 in plasma,"[1]; 37° C., incubation 30 min",613.79 ± 25.84 ng/mL
same,Concentration of Compound 1 in plasma,"[1]; 37° C., incubation 60 min",480.48 ± 10.69 ng/mL
same,Concentration of Compound 1 in plasma,"[1]; 37° C., incubation 120 min",277.94 ± 5.55 ng/mL
same,Concentration of Compound 1 in plasma,"[1]; 37° C., incubation 240 min",80.70 ± 2.02 ng/mL
same,half-life at 1000 ng/mL,[1]; [6],70 min
same,half-life at 1000 ng/mL,"[1]; in vitro, 37° C., read-out: T½",69.5 min
same,Concentration of Compound 1 in plasma,"[2]; 37° C., incubation 0 min",502.75 ± 74.66 ng/mL
same,Concentration of Compound 1 in plasma,"[2]; 37° C., incubation 5 min",14.56 ± 3.35 ng/mL
same,Concentration of Compound 1 in plasma,"[2]; 37° C., incubation 10 min",0.00 ± 0.00 ng/mL
same,Concentration of Compound 1 in plasma,"[2]; 37° C., incubation 20 min",0.00 ± 0.00 ng/mL
same,Concentration of Compound 1 in plasma,"[2]; 37° C., incubation 30 min",0.00 ± 0.00 ng/mL
same,Concentration of Compound 1 in plasma,"[2]; 37° C., incubation 60 min",0.00 ± 0.00 ng/mL
same,Concentration of Compound 1 in plasma,"[2]; 37° C., incubation 120 min",0.00 ± 0.00 ng/mL
same,Concentration of Compound 1 in plasma,"[2]; 37° C., incubation 240 min",0.00 ± 0.00 ng/mL
same,half-life at 1000 ng/mL,[2]; [6],1 min
same,half-life at 1000 ng/mL,"[2]; in vitro, 37° C., read-out: T½",0.98 min
same,Concentration of Compound 1 in plasma,"[3]; 37° C., incubation 0 min",771.12 ± 21.68 ng/mL
same,Concentration of Compound 1 in plasma,"[3]; 37° C., incubation 5 min",804.93 ± 17.45 ng/mL
same,Concentration of Compound 1 in plasma,"[3]; 37° C., incubation 10 min",811.14 ± 21.06 ng/mL
same,Concentration of Compound 1 in plasma,"[3]; 37° C., incubation 20 min",809.01 ± 18.58 ng/mL
same,Concentration of Compound 1 in plasma,"[3]; 37° C., incubation 30 min",789.53 ± 13.73 ng/mL
same,Concentration of Compound 1 in plasma,"[3]; 37° C., incubation 60 min",717.22 ± 25.73 ng/mL
same,Concentration of Compound 1 in plasma,"[3]; 37° C., incubation 120 min",608.14 ± 25.96 ng/mL
same,Concentration of Compound 1 in plasma,"[3]; 37° C., incubation 240 min",428.20 ± 12.03 ng/mL
same,half-life at 1000 ng/mL,"[3]; average, read-out: in vitro half-life (converted)",240 min
same,half-life at 1000 ng/mL,"[3]; in vitro, 37° C., read-out: T½",240 min
same,Concentration of Compound 1 in plasma,"[4]; 37° C., incubation 0 min",775.47 ± 22.50 ng/mL
same,Concentration of Compound 1 in plasma,"[4]; 37° C., incubation 5 min",593.43 ± 7.55 ng/mL
same,Concentration of Compound 1 in plasma,"[4]; 37° C., incubation 10 min",503.18 ± 20.90 ng/mL
same,Concentration of Compound 1 in plasma,"[4]; 37° C., incubation 20 min",394.69 ± 6.72 ng/mL
same,Concentration of Compound 1 in plasma,"[4]; 37° C., incubation 30 min",316.37 ± 7.67 ng/mL
same,Concentration of Compound 1 in plasma,"[4]; 37° C., incubation 60 min",162.41 ± 9.77 ng/mL
same,Concentration of Compound 1 in plasma,"[4]; 37° C., incubation 120 min",32.22 ± 2.63 ng/mL
same,Concentration of Compound 1 in plasma,"[4]; 37° C., incubation 240 min",0.00 ± 0.00 ng/mL
same,half-life at 1000 ng/mL,[4]; [6],28 min
same,half-life at 1000 ng/mL,"[4]; in vitro, 37° C., read-out: T½",27.8 min
same,plasma level of Compound 1 at one hour after termination of the infusion,[5]; 10 mg/kg,not quantifiable
same,Cmax,"[5]; both sexes, Sprague-Dawley, rat, 10 mg/kg",980 ng/mL
same,Cmax,"[5]; both sexes, Sprague-Dawley, rat, 30 mg/kg",3490 ng/mL
same,Cmax,"[5]; both sexes, Sprague-Dawley, rat, 100 mg/kg",29000 ng/mL
same,Cmax,"[5]; both sexes, Sprague-Dawley, rat, 200 mg/kg",89700 ng/mL
same,concentration at 0.167 hr,"[5]; both sexes, Sprague-Dawley, rat, plasma, 10 mg/kg iv infusion, read-out: Plasma concentration of Compound 1",980 ± 311 ng/mL
same,concentration at 1.167 hr,"[5]; both sexes, Sprague-Dawley, rat, plasma, 10 mg/kg iv infusion, 1.167 hr, below 50 ng/mL assigned zero, read-out: Plasma concentration of Compound 1",0 ng/mL
same,concentration at 2.167 hr,"[5]; both sexes, Sprague-Dawley, rat, plasma, 10 mg/kg iv infusion, 2.167 hr, below 50 ng/mL assigned zero, read-out: Plasma concentration of Compound 1",0 ng/mL
same,concentration at 4.167 hr,"[5]; both sexes, Sprague-Dawley, rat, plasma, 10 mg/kg iv infusion, below 50 ng/mL assigned zero, read-out: Plasma concentration of Compound 1",0 ng/mL
same,Tmax,"[5]; both sexes, Sprague-Dawley, rat, plasma, 10 mg/kg",10 min
same,concentration at 0.167 hr,"[5]; both sexes, Sprague-Dawley, rat, plasma, 30 mg/kg iv infusion, read-out: Plasma concentration of Compound 1",3490 ± 809 ng/mL
same,concentration at 4.167 hr,"[5]; both sexes, Sprague-Dawley, rat, plasma, 30 mg/kg iv infusion, below 50 ng/mL assigned zero, read-out: Plasma concentration of Compound 1",0 ng/mL
same,Tmax,"[5]; both sexes, Sprague-Dawley, rat, plasma, 30 mg/kg",10 min
same,concentration at 0.167 hr,"[5]; both sexes, Sprague-Dawley, rat, plasma, 100 mg/kg iv infusion, read-out: Plasma concentration of Compound 1",29000 ± 15100 ng/mL
same,concentration at 4.167 hr,"[5]; both sexes, Sprague-Dawley, rat, plasma, 100 mg/kg iv infusion, below 50 ng/mL assigned zero, read-out: Plasma concentration of Compound 1",0 ng/mL
same,Tmax,"[5]; both sexes, Sprague-Dawley, rat, plasma, 100 mg/kg",10 min
same,concentration at 0.167 hr,"[5]; both sexes, Sprague-Dawley, rat, plasma, 200 mg/kg iv infusion, read-out: Plasma concentration of Compound 1",89700 ± 18100 ng/mL
same,concentration at 4.167 hr,"[5]; both sexes, Sprague-Dawley, rat, plasma, 200 mg/kg iv infusion, below 50 ng/mL assigned zero, read-out: Plasma concentration of Compound 1",0 ng/mL
same,Tmax,"[5]; both sexes, Sprague-Dawley, rat, plasma, 200 mg/kg",10 min
same,clearance of Compound 1 in rats,"[5]; suggested by the results, half-life not determinable",very rapid
same,plasma levels of Compound 1 at four hours after termination of the infusion,[5]; three higher dosages of 30 to 200 mg/kg,not quantifiable
